Results reported in PubChem BioAssay (NCI).
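Protocol summary: plate cells (96-well), add compound at 5 concentrations, incubate 48 h, interpolate endpoints linearly. GI50 is the concentration that inhibits growth by half. TGI: total growth inhibition.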

How the values were obtained:
Test in all cases: growth of human tumour cells (NCI), 48 h
U251 CNS = tested on: U251 CNS
SK-OV-3 ovarian = tested on: SK-OV-3 ovarian
CAKI-1 renal = tested on: CAKI-1 renal
RXF 393 renal = tested on: RXF 393 renal
TK-10 renal = tested on: TK-10 renal
KM12 colon = tested on: KM12 colon
PC-3 prostate = tested on: PC-3 prostate
SK-MEL-28 melanoma = tested on: SK-MEL-28 melanoma
CCRF-CEM leukemia = tested on: CCRF-CEM leukemia
OVCAR-8 ovarian = tested on: OVCAR-8 ovarian

Structure (SMILES) | GI50 (U251 CNS) | TGI (U251 CNS) | GI50 (SK-OV-3 ovarian) | TGI (SK-OV-3 ovarian) | GI50 (CAKI-1 renal) | TGI (CAKI-1 renal) | GI50 (RXF 393 renal) | TGI (RXF 393 renal) | GI50 (TK-10 renal) | TGI (TK-10 renal) | GI50 (KM12 colon) | TGI (KM12 colon) | GI50 (PC-3 prostate) | TGI (PC-3 prostate) | GI50 (SK-MEL-28 melanoma) | TGI (SK-MEL-28 melanoma) | GI50 (CCRF-CEM leukemia) | TGI (CCRF-CEM leukemia) | GI50 (OVCAR-8 ovarian) | TGI (OVCAR-8 ovarian)
OCC1OC(n2cnc3c(NCc4ccccc4O)ncnc32)C(O)C1O (configuration not stated) | 1.16 µM | > 100 µM | 0.627 µM | 26.1 µM | 0.349 µM | 9.43 µM | 4.62 µM | > 100 µM | 0.322 µM | > 52.6 µM | 5.23 µM | > 100 µM | 0.523 µM | > 50.1 µM | 4.15 µM | > 100 µM | 0.274 µM | 33.6 µM | 0.225 µM | 8.09 µM
OCC1OC(n2cnc3c(NCc4ccco4)ncnc32)C(O)C1O (configuration not stated) | 4.43 µM | > 100 µM | 1.6 µM | 14.2 µM | 0.369 µM | 4.33 µM | 2.21 µM | 15 µM | 3.18 µM | > 63.7 µM | 8.51 µM | > 100 µM | 1.33 µM | 19.1 µM | 8.72 µM | > 100 µM | 0.43 µM | 5.4 µM | 0.16 µM | 3.6 µM
Nc1nc(N)c(-c2ccc(Cl)c(Cl)c2)c(CP(Cl)(Cl)(Cl)Br)n1 | 4.8 µM | > 100 µM | 86.7 µM | > 100 µM | 14.7 µM | > 100 µM | 18.1 µM | > 100 µM | 29.6 µM | > 100 µM | 14.3 µM | > 100 µM | 5.31 µM | > 100 µM | 20.6 µM | > 100 µM | 8.13 µM | > 100 µM | 6.51 µM | > 100 µM
Cc1ccc(/C(=C/C=C(C#N)C#N)Sc2nc3ccccc3s2)cc1 |  |  | 14.1 µM | 30 µM | 2.72 µM | 8.35 µM | 3.78 µM | 13.8 µM | 2.42 µM | 6.37 µM | 4.72 µM | 28.9 µM | 2.25 µM | 6.52 µM | 5.14 µM | 23.9 µM | 0.465 µM | 3.02 µM | 4.35 µM | 65.6 µM
C/C=C(\C)C(=O)O[C@@H]1C=CC(=O)O[C@H]1CNC(=O)[C@H](C)O | 20.5 µM | 54.7 µM | 39.4 µM | 98.9 µM | 17.8 µM | 36.5 µM | 18.3 µM | 42.9 µM | 18.9 µM | 43.2 µM | 17.3 µM | 36.3 µM | 27.3 µM | > 92.2 µM | 16.1 µM | 35.8 µM | 6.1 µM | 26.2 µM | 30.5 µM | > 100 µM
COc1ccc2nc3ccccc3c(NCc3ccccc3)c2c1 | 2.71 µM | 8.34 µM | 2.45 µM | 9.08 µM | 1.94 µM | 6.82 µM | 1.53 µM | 3.13 µM | 3.79 µM | 13.1 µM | 3.49 µM | 12.9 µM | 2.35 µM | 7.39 µM | 1.75 µM | 3.57 µM | 2.8 µM | 11.7 µM | 2.76 µM | 9.32 µM
Cc1cn(C2CC(O)C(COC(N)=O)O2)c(=O)[nH]c1=O (configuration not stated) |  | > 100 µM |  | > 100 µM |  | > 100 µM |  | > 100 µM |  | > 100 µM |  | > 100 µM |  | > 100 µM |  | > 100 µM |  | > 100 µM |  | > 100 µM
C=C1C(=O)O[C@H]2[C@H]1CC/C(COC(=O)N[C@H](Cc1c[nH]c3ccccc13)C(=O)OC)=C\CC[C@@]1(C)O[C@@H]21 | 10 µM | 22.1 µM | 13.4 µM | 26.4 µM |  |  | 1.28 µM | 2.66 µM | 2.1 µM | 5.07 µM | 11.8 µM | 28.6 µM | 6.49 µM | 20.5 µM | 1.96 µM | 4.48 µM | 1.78 µM | 6.69 µM | 2.8 µM | 9.13 µM
CCCCNCCCCCNc1cc(OC)cc2cccnc12 | 42.6 µM | > 100 µM | 18.4 µM | 35.9 µM | 18.4 µM | 37.7 µM | 12.3 µM | 27.9 µM | 23.4 µM | 44.5 µM | 39.3 µM | > 100 µM | 15.2 µM | 34.7 µM |  |  | 28.1 µM | 74.2 µM | 17.8 µM | 37.6 µM
C=CCN1C(=O)[C@]2(SC1=S)[C@H](c1cccc(Cl)c1)CN(C)[C@]21C(=O)NC2C=CC(Cl)=C[C@H]21 (some centres not stated) | 2.08 µM | 4.62 µM | 8.36 µM | 29.2 µM |  |  | 2.14 µM | 5.8 µM | 13 µM | 26.9 µM | 1.99 µM | 6.35 µM | 2.19 µM | 13 µM | 10.9 µM | 27.8 µM | 3.25 µM | 11.6 µM | 4.22 µM | 17.3 µM
CC(=O)c1ccc(Oc2c3ccccc3nc3occc23)cc1 | 4.21 µM | > 100 µM | 59 µM | > 100 µM |  |  | 6.26 µM | 56.7 µM | 11.4 µM | > 100 µM | 9.12 µM | > 100 µM | 9.77 µM | > 100 µM | 41.2 µM | > 100 µM | 4.8 µM | > 100 µM | 3.33 µM | > 100 µM
O=C(Nc1cc2cc([N+](=O)[O-])ccc2oc1=O)c1cccs1 |  | > 100 µM |  |  |  | > 100 µM |  | 34.4 µM |  | > 100 µM |  | 72.9 µM |  | > 100 µM |  | > 100 µM |  | 78.3 µM |  | > 100 µM
NCCCNc1nc2ccccc2c2c(=O)c3cc(F)cc(Cl)c3sc12 | 1.72 µM | 3.37 µM |  |  | 1.58 µM | 2.95 µM | 1.62 µM | 3.16 µM | 1.91 µM | 3.39 µM | 1.72 µM | 3.17 µM | 1.76 µM | 3.35 µM | 1.94 µM | 3.49 µM | 1.95 µM | 4.58 µM | 1.81 µM | 3.83 µM
